The assay has as its target Vps34 enzyme (Homo sapiens (Human), UniProt Q8NEB9). The assay can be described thus: Vps34 biochemical assay (Adapta kinase assay). The following applies: 20 μM ATP and 200 μM PI:PS in substrate mix, 1 h at room temperature, read-out: Median IC50 uM Adapta. On the procedure: Dilution series of compounds of the invention were prepared in DMSO at 100 times the final assay concentration (n1=n0/3 in 10 points). The compounds were further diluted to 4 times the assay concentration in assay buffer (Life technologies buffer Q, PV5125, diluted 5 times supplemented with 2 mM DTT and 2 mM MnCl2). 2.5 μl of the diluted compounds were added to a 384 well assay plate followed by 2.5 μl of 16.5 nM Vps34 enzyme (Life technologies, PV5126). Enzyme and compounds were pre-incubated at rt for 15 min. Then 5 μl of substrate mix containing 20 μM ATP (Life technologies, PV3227) and 200 μM PI:PS substrate (Life technologies, PV5122) in assay buffer was added to the wells containing compound and enzyme. Mixing was performed by pipetting several times. The reaction was incubated at room temperature for 1 h. Then 5 μl stop-detection mix, prepared as described in the Adapta kinase assay kit instructions (Life technologies, PV5099) containing Adapta Eu-anti-ADP antibody (2.3 nM), Alexa Fluor 647 ADP tracer (9 nM) and EDTA (30 mM) in TR-FRET buffer, was added to quench the reaction. Mixing was performed by pipetting several times. The assay plate was then incubated at room temperature for 30 min and read with Artemis micro plate reader. Percent inhibition of the compounds as compared to DMSO treated control samples was calculated. By the use of Dotmatics software compound concentration versus percent inhibition was fitted to generate IC50 values.
Vps34 enzyme, sequence (Q8NEB9 whole entry): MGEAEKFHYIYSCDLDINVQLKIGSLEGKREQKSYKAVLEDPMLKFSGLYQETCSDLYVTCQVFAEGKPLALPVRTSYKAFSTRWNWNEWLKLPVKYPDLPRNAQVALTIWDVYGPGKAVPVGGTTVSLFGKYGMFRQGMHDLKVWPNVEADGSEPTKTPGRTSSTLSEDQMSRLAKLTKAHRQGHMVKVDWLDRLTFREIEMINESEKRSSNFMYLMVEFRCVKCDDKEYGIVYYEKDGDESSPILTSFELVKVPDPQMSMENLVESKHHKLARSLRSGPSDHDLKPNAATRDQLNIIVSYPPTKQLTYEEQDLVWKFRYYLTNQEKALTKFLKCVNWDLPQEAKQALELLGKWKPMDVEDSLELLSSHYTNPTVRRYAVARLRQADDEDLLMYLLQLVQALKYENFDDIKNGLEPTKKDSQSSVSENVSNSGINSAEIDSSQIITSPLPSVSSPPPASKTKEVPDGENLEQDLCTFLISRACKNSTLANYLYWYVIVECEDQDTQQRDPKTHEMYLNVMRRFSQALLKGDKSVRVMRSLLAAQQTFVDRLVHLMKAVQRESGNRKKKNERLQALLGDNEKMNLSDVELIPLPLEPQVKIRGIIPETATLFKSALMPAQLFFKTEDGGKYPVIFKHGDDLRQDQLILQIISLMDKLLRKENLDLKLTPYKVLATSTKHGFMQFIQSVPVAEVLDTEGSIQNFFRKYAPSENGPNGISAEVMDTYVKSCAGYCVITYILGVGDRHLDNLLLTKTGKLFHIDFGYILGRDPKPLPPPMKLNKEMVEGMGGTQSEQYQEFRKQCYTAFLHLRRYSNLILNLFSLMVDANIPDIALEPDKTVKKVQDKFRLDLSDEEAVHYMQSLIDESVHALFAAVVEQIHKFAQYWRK
Broadly, the IC50 is the concentration that gives 50% inhibition. On to `C[C@@H]1COCCN1c1cc(N2CCCCC2C(F)(F)F)[nH]c(=O)c1` (single isomer, unassigned) [Example 25_2], for which the concentration for half-maximal inhibition (IC50) was found to be 0.08 µM.
As for `Cc1ccc(C2CCCN2c2cc(N3CCOC[C@H]3C)cc(=O)[nH]2)o1` (single isomer, unassigned) [Example 22_1], the IC50 is 0.04 µM.
To `COC(C)(C)C1CCCN1c1cc(N2CCOC[C@H]2C)cc(=O)[nH]1` (single isomer, unassigned) [Example 11_2] belongs 0.3 µM; to `COC(C)(C)C1CCCN1c1cc(N2CCOC[C@H]2C)cc(=O)[nH]1` (mixture of isomers) [Example 11, (R) and (S) 6-[2-(1-methoxy-1-methyl-ethyl)pyrrolidin-1-yl]-4-[(3R)-3-methylmorpholin-4-yl]-1H-pyridin-2-one], 0.09 µM; to `Cc1cc(C2CCCN2c2cc(N3CCOC[C@H]3C)cc(=O)[nH]2)nn1C` (single isomer, unassigned) [Example 20_1], 0.06 µM.
`Cc1cc(C2CCCN2c2cc(N3CCOC[C@H]3C)cc(=O)[nH]2)nn1C` (mixture of isomers) [Example 20, (R) and (S) 6-[2-(1,5-dimethylpyrazol-3-yl)pyrrolidin-1-yl]-4-[(3R)-3-methylmorpholin-4-yl]-1H-pyridin-2-one]: the IC50 stood at 0.2 µM.
For `C[C@@H]1COCCN1c1cc(N2CCS(=O)(=O)CC2)[nH]c(=O)c1` [Example 28, 6-(1,1-dioxo-1,4-thiazinan-4-yl)-4-[(3R)-3-methylmorpholin-4-yl]-1H-pyridin-2-one] the value was 0.4 µM; for `C[C@@H]1COCCN1c1cc(N2CCCC2C2CCCCC2)[nH]c(=O)c1` (single isomer, unassigned) [Example 12_1], 0.2 µM.
For `C[C@@H]1COCCN1c1cc(N2CCCC2c2cnn(C)c2)[nH]c(=O)c1` (single isomer, unassigned) [Example 19_1] the value was 0.3 µM.
To `C[C@@H]1COCCN1c1cc(N2CCCC2C(=O)N(C)C)[nH]c(=O)c1` (stereo partly drawn) [Example 10, N,N-dimethyl-1-[4-[(3R)-3-methylmorpholin-4-yl]-6-oxo-1H-pyridin-2-yl]pyrrolidine-2-carboxamide] belongs 0.4 µM.
As for `Cn1c(N2CCCC2c2ccccc2)cc(N2CCOCC2)cc1=O` (stereo not shown) [Example 2, 1-methyl-4-morpholino-6-(2-phenylpyrrolidin-1-yl)pyridin-2-one], the IC50 stood at 0.1 µM.
For `C[C@@H]1COCCN1c1cc(N2CCCC2c2ccccn2)[nH]c(=O)c1` (single isomer, unassigned) [Example 38_1] the value was 0.05 µM; for `C[C@@H]1COCCN1c1cc(N2CCN(C(=O)C3CCCO3)CC2C(F)(F)F)[nH]c(=O)c1` (single isomer, unassigned) [Example 48_1], 0.01 µM; for `C[C@@H]1COCCN1c1cc(N2CC[S+]([O-])CC2)[nH]c(=O)c1` [Example 27, 4-[(3R)-3-methylmorpholin-4-yl]-6-(1-oxo-1,4-thiazinan-4-yl)-1H-pyridin-2-one], 0.4 µM.
`C[C@@H]1COCCN1c1cc(N2CCN(C(=O)c3cncc(F)c3)CC2C(F)(F)F)[nH]c(=O)c1` (stereo partly drawn) [Example 46, 6-[4-(5-fluoropyridine-3-carbonyl)-2-(trifluoromethyl)piperazin-1-yl]-4-[(3R)-3-methylmorpholin-4-yl]-1H-pyridin-2-one]: the IC50 was 0.005 µM.
To `C[C@@H]1COCCN1c1cc(N2CCCC2c2cccc(C(F)(F)F)c2)[nH]c(=O)c1` (single isomer, unassigned) [Example 16_2] belongs 0.08 µM; to `C[C@@H]1COCCN1c1cc(N2CCCC2c2cc(F)ccc2F)[nH]c(=O)c1` (single isomer, unassigned) [Example 14_1], 0.02 µM.
For `C[C@@H]1COCCN1c1cc(N2CCCC2c2ccccn2)[nH]c(=O)c1` (mixture of isomers) [Example 38, (R) and (S) 4-[(3R)-3-methylmorpholin-4-yl]-6-[2-(2-pyridyl)pyrrolidin-1-yl]-1H-pyridin-2-one] the value was 0.05 µM.
For `C[C@@H]1COCCN1c1cc(N2CCC[C@H]2C(F)(F)F)[nH]c(=O)c1` [Example 34, 4-[(3R)-3-methylmorpholin-4-yl]-6-[(2S)-2-(trifluoromethyl)pyrrolidin-1-yl]-1H-pyridin-2-one] the value was 0.1 µM; for `C[C@@H]1COCCN1c1cc(N2CCCC2c2cccc(OC(F)(F)F)c2)[nH]c(=O)c1` (single isomer, unassigned) [Example 15_1], 0.2 µM.
With `C[C@@H]1COCCN1c1cc(N2CCN(C)CC2C(F)(F)F)[nH]c(=O)c1` (stereo partly drawn) [Example 49, 4-[(3R)-3-methylmorpholin-4-yl]-6-[4-methyl-2-(trifluoromethyl)piperazin-1-yl]-1H-pyridin-2-one], the IC50 was found to be 0.03 µM.
As for `C[C@@H]1COCCN1c1cc(N2CCOCC2C2CC2)[nH]c(=O)c1` (stereo partly drawn) [Example 33, 6-(3-cyclopropylmorpholin-4-yl)-4-[(3R)-3-methylmorpholin-4-yl]-1H-pyridin-2-one], the IC50 amounted to 0.03 µM.
For `COc1cccc(C2CCCCN2c2cc(N3CCOC[C@H]3C)cc(=O)[nH]2)c1` (single isomer, unassigned) [Example 44_2] the value was 0.006 µM; for `COc1cccc(C2CCCN2c2cc(N3CCOC[C@H]3C)cc(=O)[nH]2)c1` (single isomer, unassigned) [Example 17_1], 0.02 µM; for `C[C@@H]1COCCN1c1cc(N2CCCC2c2cccc(F)c2)[nH]c(=O)c1` (single isomer, unassigned) [Example 13_2], 0.1 µM.
Regarding `C[C@@H]1COCCN1c1cc(N2CCCC2c2ccccc2)[nH]c(=O)c1` (mixture of isomers) [Example 18, (R) and (S) 4-[(3R)-3-methylmorpholin-4-yl]-6-(2-phenylpyrrolidin-1-yl)-1H-pyridin-2-one], the half-maximal inhibitory concentration (IC50) amounted to 0.06 µM.
For `C[C@@H]1COCCN1c1cc(N2CCOCC2c2ccccc2)[nH]c(=O)c1` (mixture of isomers) [Example 26, (R) and (S) 4-[(3R)-3-methylmorpholin-4-yl]-6-(3-phenylmorpholin-4-yl)-1H-pyridin-2-one] the value was 0.06 µM; for `C[C@@H]1COCCN1c1cc(N2CCCC2c2ccccc2)[nH]c(=O)c1` (single isomer, unassigned) [Example 18_1], 0.07 µM.
On to `Cc1ccc(C2CCCN2c2cc(N3CCOC[C@H]3C)cc(=O)[nH]2)o1` (mixture of isomers) [Example 22, (R) and (S) 6-[2-(5-methyl-2-furyl)pyrrolidin-1-yl]-4-[(3R)-3-methylmorpholin-4-yl]-1H-pyridin-2-one], for which the half-inhibitory concentration (IC50) came out at 0.06 µM.
For `C[C@@H]1COCCN1c1cc(N2CCCC2c2cc(F)ccc2F)[nH]c(=O)c1` (mixture of isomers) [Example 14, (R) and (S) 6-[2-(2,5-difluorophenyl)pyrrolidin-1-yl]-4-[(3R)-3-methylmorpholin-4-yl]-1H-pyridin-2-one] the value was 0.04 µM; for `C[C@@H]1COCCN1c1cc(N2CCCC2c2cccc(F)c2)[nH]c(=O)c1` (single isomer, unassigned) [Example 13_1], 0.06 µM; for `C[C@@H]1COCCN1c1cc(N2CCCC2c2cnn(C)c2)[nH]c(=O)c1` (single isomer, unassigned) [Example 19_2], 0.3 µM.
For `CC1COCCN1c1cc(N2CCOC[C@H]2C)cc(=O)[nH]1` (mixture of isomers) [Example 24, (R) and (S) 4-[(3R)-3-methylmorpholin-4-yl]-6-(3-methylmorpholin-4-yl)-1H-pyridin-2-one] the value was 0.03 µM; for `C[C@@H]1COCCN1c1cc(N2CCCC2c2nccs2)[nH]c(=O)c1` (mixture of isomers) [Example 39, (R) and (S) 4-[(3R)-3-methylmorpholin-4-yl]-6-(2-thiazol-2-ylpyrrolidin-1-yl)-1H-pyridin-2-one], 0.05 µM.
For `CCn1ccc(C2CCCN2c2cc(N3CCOC[C@H]3C)cc(=O)[nH]2)n1` (mixture of isomers) [Example 21, (R) and (S) 6-[2-(1-ethylpyrazol-3-yl)pyrrolidin-1-yl]-4-[(3R)-3-methylmorpholin-4-yl]-1H-pyridin-2-one] the value was 0.06 µM; for `Cc1cc(C2CCCN2c2cc(N3CCOC[C@H]3C)cc(=O)[nH]2)nn1C` (single isomer, unassigned) [Example 20_2], 0.2 µM; for `C[C@@H]1COCCN1c1cc(N2CCOCC2c2ccccc2)[nH]c(=O)c1` (single isomer, unassigned) [Example 26_2], 0.3 µM.
Take `C[C@@H]1COCCN1c1cc(N2CCCC2c2cccc(OC(F)(F)F)c2)[nH]c(=O)c1` (mixture of isomers) [Example 15, (R) and (S) 4-[(3R)-3-methylmorpholin-4-yl]-6-[2-[3-(trifluoromethoxy)phenyl]pyrrolidin-1-yl]-1H-pyridin-2-one]: the IC50 came to 0.06 µM.
For `CC1COCCN1c1cc(N2CCOC[C@H]2C)cc(=O)[nH]1` (single isomer, unassigned) [Example 24_2], the 50% inhibitory concentration (IC50) is 0.2 µM.
For `C[C@@H]1COCCN1c1cc(N2CCCC2C2CCCCC2)[nH]c(=O)c1` (mixture of isomers) [Example 12, (R) and (S) 6-(2-cyclohexylpyrrolidin-1-yl)-4-[(3R)-3-methylmorpholin-4-yl]-1H-pyridin-2-one] the value was 0.09 µM.
